# Results taken from PubChem BioAssay AID2651 (Vanderbilt High Throughput Screening Facility, 2010).
# Active and inactive are the calls of the source.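 Rule for the calls: active = mean EC50 from three replicate curves at or below a set limit; inactive = mean EC50 above a set limit.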
# Target: Muscarinic acetylcholine receptor M1 (Rattus norvegicus) (UniProt P08482)
# Experiment: structure-activity potentiation of ACh at M1 – cell-based, calcium mobilization, CHO-K1, SAR follow-up (AID 2651)
# Conditions: CHO-K1 rat M1, calcium Fluo-4, ACh EC20 potentiation
# Sequence of Muscarinic acetylcholine receptor M1 (Rattus norvegicus) (P08482 whole entry, looked up): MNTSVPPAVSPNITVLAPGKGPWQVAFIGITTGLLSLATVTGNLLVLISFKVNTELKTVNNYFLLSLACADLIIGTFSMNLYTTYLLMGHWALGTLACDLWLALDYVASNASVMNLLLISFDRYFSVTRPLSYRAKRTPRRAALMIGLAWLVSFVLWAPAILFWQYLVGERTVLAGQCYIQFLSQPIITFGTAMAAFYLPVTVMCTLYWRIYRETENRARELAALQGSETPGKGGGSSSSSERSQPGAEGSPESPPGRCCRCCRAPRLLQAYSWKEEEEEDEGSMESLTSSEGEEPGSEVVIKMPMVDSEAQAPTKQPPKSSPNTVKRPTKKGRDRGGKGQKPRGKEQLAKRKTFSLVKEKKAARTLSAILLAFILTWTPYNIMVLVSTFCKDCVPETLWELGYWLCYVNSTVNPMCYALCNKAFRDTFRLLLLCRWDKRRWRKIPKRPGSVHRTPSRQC
row,SMILES,EC50
1,Cc1cc(NC(=O)CS(=O)(=O)c2cn(Cc3ccc(F)c(-c4ccn[nH]4)c3)c3ccccc23)no1,> 30 µM (inactive)
2,Cc1cc(NC(=O)CS(=O)(=O)c2cn(Cc3cccc(C(F)(F)F)c3)c3ccccc23)no1,> 30 µM (inactive)
3,Cc1cc(NC(=O)CS(=O)(=O)c2cn(Cc3cccc(-c4ccccc4)c3)c3ccccc23)no1,> 30 µM (inactive)

# The remaining lines, values ahead:
row,EC50,SMILES
1,> 30 µM (inactive),Cc1cc(NC(=O)CS(=O)(=O)c2cn(Cc3ccc(Cl)c(Cl)c3)c3ccccc23)no1
2,> 30 µM (inactive),Cc1cc(NC(=O)CS(=O)(=O)c2cn(Cc3ccc(F)c(Cl)c3)c3ccccc23)no1
